Assay results reported in paper PMC9948199 (ACS Omega, 2023).
One block for each compound: values may come before it.

Legend:
[1] = tested on: AsPC-1 (pancreatic cancer cell line bearing the KRAS^G12D mutation) xenograft; experiment: AsPC-1 xenograft tumor mouse model efficacy; format: in vivo, Balb/c nude mice; details: 16 days
[2] = Blood, tumor and tissue concentration after last dose in the tumor model; format: in vivo, Balb/c nude mice; details: for concentration at 2 h / concentration at 8 h: female, Balb/c nude (Nu/Nu), mouse, ip; for concentration at 2 h / concentration at 8 h / concentration of MRTX1133 in kidney: 10 mg/kg; for concentration of MRTX1133 in heart / concentration of MRTX1133 in intestine / concentration of MRTX1133 in liver / concentration of MRTX1133 in lung / concentration of MRTX1133 in spleen / concentration of MRTX1133 in stomach / concentration of MRTX1133 in tumor / concentration of MRTX1133 in kidney: from MRTX1133 IP 10 mpk
[3] = Tolerability and body weight in mice; format: in vivo; details: oral, 300 mpk
[4] = Caco-2 permeability assay; format: in vitro ADME; details: human, Table 1
[5] = Stability in mouse liver microsomes; format: in vitro ADME; details: pH 7.4
Pharmacokinetics in mice = format: in vivo; details: intravenous, 3 mpk
[6] = following IP administration of MRTX1133 (10 mpk), time not given

SMILES: C#Cc1c(F)ccc2cc(O)cc(-c3ncc4c(N5C[C@H]6CC[C@@H](C5)N6C(=O)OC(C)OC(=O)CCC)nc(OC[C@@]56CCCN5C[C@H](F)C6)nc4c3F)c12 (stereo partly drawn) [Compound 9, 1-(Butyryloxy)ethyl (1R,5S)-3-(7-(8-ethynyl-7-fluoro-3-hydroxynaphthalen-1-yl)-8-fluoro-2-(((2R,7aS)-2-fluorotetrahydro-1H-pyrrolizin-7a(5H)-yl)methoxy)pyrido[4,3-d]pyrimidin-4-yl)-3,8-diazabicyclo[3.2.1]octane-8-carboxylate]
- tumor growth inhibition (TGI) ([1]; high dose 126 mpk (equimolar to 100 mpk MRTX1133) p.o. bid): 54%
- tumor growth inhibition (TGI) ([1]; low dose 37.8 mpk (equimolar to 30 mpk MRTX1133) p.o. bid): 20%
- blood concentration of the named Cpd ([2]; 8 h post last oral dose of prodrug 9 (high dose, 126 mpk bid) in the tumor model): BLQ
- tolerability in mice ([3]; conventional vehicle): intolerable
- tolerability in mice ([3]; lipid-based formulation): well-tolerated

- Papp A→B ([4]; Caco-2, Caco-2 permeability Papp A – B): < 0.48 ×10⁻⁶ cm/s
- Papp B→A ([4]; Caco-2, Caco-2 permeability Papp B – A): 8.05 ×10⁻⁶ cm/s
- efflux ratio ([4]; Caco-2, Caco-2 permeability efflux ratio): > 16.8
- CLint scaled at 1 μM [5]: 143 mL/min/kg
- half-life at 1 μM [5]: 38.5 min
- AUC0–24 h of MRTX1133 (Pharmacokinetics in mice): 2253 ng·h/mL
- concentration at 2 h ([2]; brain): 131 ng/g
- concentration at 8 h ([2]; brain): 139 ng/g
- concentration at 2 h ([2]; whole blood): 654 ng/mL
- concentration at 8 h ([2]; whole blood): 330 ng/mL
- concentration of MRTX1133 in the liver, spleen, and lung [2, 6]: ~60 000 ng/g
- concentration of MRTX1133 in the stomach, intestine, and heart [2, 6]: ~20 000 ng/g
- concentration of MRTX1133 in heart ([2]; 2 h post last dose): 18 330 ng/g
- concentration of MRTX1133 in intestine ([2]; 2 h post last dose): 24 388 ng/g
- concentration of MRTX1133 in liver ([2]; 2 h post last dose): 63 525 ng/g
- concentration of MRTX1133 in lung ([2]; 2 h post last dose): 53 040 ng/g
- concentration of MRTX1133 in spleen ([2]; 2 h post last dose): 58400 ng/g
- concentration of MRTX1133 in stomach ([2]; 2 h post last dose): 26 325 ng/g
- concentration of MRTX1133 in tumor ([2]; 2 h post last dose): 11 870 ng/g
- concentration of MRTX1133 in kidney ([2]; 2 h post last dose): 285 150 ng/g
- concentration of MRTX1133 in heart ([2]; 8 h post last dose): 15 795 ng/g
- concentration of MRTX1133 in intestine ([2]; 8 h post last dose): 18 213 ng/g
- concentration of MRTX1133 in liver ([2]; 8 h post last dose): 62 950 ng/g
- concentration of MRTX1133 in lung ([2]; 8 h post last dose): 57 300 ng/g
- concentration of MRTX1133 in spleen ([2]; 8 h post last dose): 54000 ng/g
- concentration of MRTX1133 in stomach ([2]; 8 h post last dose): 27 775 ng/g
- concentration of MRTX1133 in tumor ([2]; 8 h post last dose): 14 300 ng/g
- concentration of MRTX1133 in kidney ([2]; 8 h post last dose): 333 900 ng/g
SMILES: C#Cc1c(F)ccc2cc(O)cc(-c3ncc4c(N5CC6CCC(C5)N6)nc(OC[C@@]56CCCN5C[C@H](F)C6)nc4c3F)c12 [MRTX1133]
- antitumor effect ([1]; 100 mpk p.o. bid): no apparent antitumor effect
